Assay results published in patent US11447503B2, “Pyridine carbamates and their use as GLUN2B receptor modulators” (JANSSEN PHARMACEUTICA NV, priority 2019, dated 2022).

Tests used:
[1] = target: human GluN1/GluN2B NMDA receptors (Homo sapiens, UniProt Q05586+Q13224); test: Cell-based calcium flux (FLIPR) assay on cloned human GluN1/GluN2B ion channels expressed in mammalian cells; conditions: standard assay; glutamate ~EC40, 10 μM glycine; stable Tet-On cell line
Procedure, shortened: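 Tet-On-induced stable cells expressing human GluN1/GluN2B, Calcium 5 dye. Compounds preincubated 5 min (agonist check), then glutamate at ~EC40 plus 10 μM glycine added for 5 min; Mg2+ and buffer composition differ between standard and HTS formats. FLIPR Tetra fluorescence normalised to control wells; (+)MK-801 as antagonist control.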

[2] = Liver microsomal stability assay (extraction ratio); format: in vitro ADME; conditions: test compound 1 μM; 0.5 mg/mL liver microsomes, NADPH, 37° C.; species not stated (method: mouse, rat, and human)
Procedure: 5.4. Liver Microsomal Stability Assay (Extraction Ratio)
Microsomal stability studies (see, Chrovian et al, “H-Pyrrolo[3,2-b]pyridine GluN2B-Selective Negative Allosteric Modulators”. ACS Med Chem Lett. 2019 Jan. 10; 10(3):261-266) were conducted on a Biomek® FX Robotic Liquid Handling Workstation (Beckman Coulter, Brea, Calif.), which consists of a 96-channel pipette head, a 12-position workstation deck, and a plate incubator. Test compounds (1 μM) were spiked in a reaction mix consisting of 100 mM potassium phosphate buffer (pH 7.4), 3 mM MgCl2, and 0.5 mg/mL liver microsomes from mouse, rat, and human (BD Gentest). The reaction was brought to 37° C. and initiated by adding NADPH to a final concentration of 1 mM. After mixing on the platedeck, 50 μL aliquots were excised from the reaction plate at 0, 5, 10, 20, 40, and 60 min and quenched with four volumes of acetonitrile spiked with […] of the internal standard phenytoin. Quenched plates were centrifuged at 5700 rpm for 10 min at 4° C., and supernatant was diluted 1:3 in water before LC/MS/MS analysis. The compound half-lives were derived from plots of the In of percent remaining compound over time to determine the intrinsic clearance. The predicted hepatic clearance was derived from the intrinsic clearance value using equations from the well-stirred model (Current Drug Metabolism, 2008, 9, 940-951), where no correction was made plasma protein binding and the blood to plasma concentration ratio was assumed to be one. The extraction ratio (ER) was calculated by dividing the predicted hepatic clearance by species blood flow (Q), where Q is 90, 55, and 21.7 mL/min/kg for mouse, rat and human, respectively.

Sequence of human GluN1/GluN2B NMDA receptors (Q13224 27-1484, other chains not shown): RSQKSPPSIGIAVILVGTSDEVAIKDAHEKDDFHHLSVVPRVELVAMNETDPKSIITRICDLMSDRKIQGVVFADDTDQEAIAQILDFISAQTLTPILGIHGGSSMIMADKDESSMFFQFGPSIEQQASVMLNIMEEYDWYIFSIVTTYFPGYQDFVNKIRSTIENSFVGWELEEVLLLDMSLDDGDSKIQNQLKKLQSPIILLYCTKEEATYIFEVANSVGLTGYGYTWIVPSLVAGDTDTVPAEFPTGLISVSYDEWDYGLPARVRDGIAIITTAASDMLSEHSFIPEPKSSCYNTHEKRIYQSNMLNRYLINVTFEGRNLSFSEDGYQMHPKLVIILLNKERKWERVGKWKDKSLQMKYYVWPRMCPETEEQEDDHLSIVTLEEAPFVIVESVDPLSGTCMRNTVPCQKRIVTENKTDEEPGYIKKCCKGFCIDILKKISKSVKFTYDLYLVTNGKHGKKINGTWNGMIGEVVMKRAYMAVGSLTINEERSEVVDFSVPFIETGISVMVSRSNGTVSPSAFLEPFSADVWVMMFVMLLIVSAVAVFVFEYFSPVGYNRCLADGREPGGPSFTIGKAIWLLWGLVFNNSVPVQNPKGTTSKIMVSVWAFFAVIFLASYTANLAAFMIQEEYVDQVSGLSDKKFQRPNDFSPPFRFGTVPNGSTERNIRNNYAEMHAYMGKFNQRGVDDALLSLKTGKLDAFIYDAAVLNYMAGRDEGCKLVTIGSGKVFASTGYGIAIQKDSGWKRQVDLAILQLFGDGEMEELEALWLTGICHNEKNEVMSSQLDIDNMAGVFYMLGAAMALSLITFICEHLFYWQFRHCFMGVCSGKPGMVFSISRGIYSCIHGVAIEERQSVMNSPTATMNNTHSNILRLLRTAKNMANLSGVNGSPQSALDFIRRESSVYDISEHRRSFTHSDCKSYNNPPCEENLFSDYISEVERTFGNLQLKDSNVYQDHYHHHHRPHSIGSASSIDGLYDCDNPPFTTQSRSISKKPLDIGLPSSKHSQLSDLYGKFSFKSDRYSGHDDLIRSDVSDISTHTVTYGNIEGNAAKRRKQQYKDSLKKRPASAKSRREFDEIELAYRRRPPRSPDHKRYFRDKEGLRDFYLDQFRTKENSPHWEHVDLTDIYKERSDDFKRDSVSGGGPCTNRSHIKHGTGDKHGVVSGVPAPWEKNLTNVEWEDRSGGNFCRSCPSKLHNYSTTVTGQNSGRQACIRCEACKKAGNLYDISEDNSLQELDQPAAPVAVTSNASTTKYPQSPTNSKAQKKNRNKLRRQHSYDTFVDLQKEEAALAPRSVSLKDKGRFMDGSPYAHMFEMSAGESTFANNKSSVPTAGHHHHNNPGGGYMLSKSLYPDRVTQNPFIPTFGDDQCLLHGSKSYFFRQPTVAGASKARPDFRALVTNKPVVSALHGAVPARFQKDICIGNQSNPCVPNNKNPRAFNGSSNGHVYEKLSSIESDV

IC50 [1]: 27 nM | Extraction Ratio @ 1 μM [2]: 0.55
Compound: Cc1ncc(-c2ccc(F)c(C(F)F)c2)cc1CN1CCCOC1=O [Example 97, 3-[[5-[3-(Difluoromethyl)-4-fluoro-phenyl]-2-methyl-3-pyridyl]methyl]-1,3-oxazinan-2-one]
